Reference: patent publication US9126060B2, “Cosmetic use of geranylgeranyl-2-propanol” (SEDERMA, priority 2010, dated 2015)

What was measured:
human melanocytes = assay: Melanin content of human melanocytes; format: cell-based; conditions: for Melanin content: 5 days, n = 4
Description: Principle: Human melanocytes are seeded and placed in contact with the GGP for 5 days. After incubation, the residual tyrosinase activity and total melanin content were measured in cell homogenates, and then divided by the number of cells (melanin) or to the protein amount (tyrosinase).

human dermal fibroblasts = assay: Senescence associated β-galactosidase activity in fibroblasts after oxidising stress (FDG fluorimetry); format: cell-based; conditions: for β-galactosidase relative activity: after oxidising stress, n = 4
Description: Principle: Proliferative human dermal fibroblasts were contacted or not with the GGP for 72 hours in a growth medium. After this first incubation, the cells were subjected for 5 days to an oxidative stress daily, one hour each, in a basic medium, common to all cultures. This stress is known to create a SIPS and to induce a strong increase in β-galactosidase activity in the stressed culture compared to an unstressed culture. Between two stress cells are returned to the growth medium with or without the substance tested. After the fifth stress, β-galactosidase activity is evaluated.
Evaluation of β-galactosidase activity is done after fixing the layers. They are put in contact with a substrate of β-galactosidase nonfluorescent FDG (fluorescein di-β-galactopyranoside), which will release a fluorescent compound upon hydrolysis by β-galactosidase. The emitted fluorescence is quantified in a fluorometer. It will increase with the amount of senescent cells present in culture. The relative activity of β-galactosidase thus found is 2974+/−957 UFA/million cells in a proliferative culture and increases by a factor 5 (p<0.01) in a culture little to not proliferative.

stratum corneum = assay: Ex vivo lipoperoxidation of stratum corneum extracts from volunteers (8-isoprostanes ELISA); format: in vivo, human; conditions: cream containing 0.04% of GGP 2 times daily for 2 months on forearm; compared with placebo extracts; H2O2/FeCl2 stress; 13 volunteers
Text: Lipids of the stratum corneum are the primary targets of free radical aggressions. Thus, it seemed interesting to test the antiradical capacity of the GGP in ex vivo condition on extracts of stratum corneum from volunteers who applied for 2 months, on one arm a placebo cream and on the other arm the GGP cream (Formulation 2/2 in the examples given above). These extracts are stressed to oxidize lipids. A lower oxidation in skin extracts which were in contact with the GGP is seeked.
Principle: 13 volunteers have applied 2 times daily for 2 months in a randomized manner the cream containing 0.04% of GGP on one forearm. The placebo cream was applied controlateral. Each subject was therefore their own control. At T0 and T2, specimens of stratum corneum were taken on the 2 arms with 3 adhesive discs per aim, and for each disk 15 take off (saturation of the disk).
The disks were stored at −20° C. until lipoperoxidation testing. After rapid thawing at room temperature, the 3 discs from the same arms were collected and sonicated in a suitable diluent, to take off and recover the maximum amount of stratum corneum samples. The resulting suspension was then stressed overnight at 45° C., using a H2O2/FeCl2 solution. The lipid peroxidation was assessed by measuring 8-isoprostanes (ELISA assay). The data were normalized using a protein assay.

CC(C)=CCC/C(C)=C/CC/C(C)=C/CC/C(C)=C/CCC(C)O (centres unmarked) [GGP, 6,10,14,18-tetramethylnonadeca-5,9,13,17-tetraen-2-ol]
Change (%) of melanin content vs control (human melanocytes; 1 ppm): −4%; nsd
Melanin content (human melanocytes; 1 ppm): 46.6 +/− 2.4 μg/mL/10^6 cell
Change (%) of melanin content vs control (human melanocytes; 3 ppm): −36%; p < 0.01
Melanin content (human melanocytes; 3 ppm): 31.3 +/− 1.4 μg/mL/10^6 cell
Change (%) of melanin content vs control (human melanocytes; 5 ppm): −59%; p < 0.01
Melanin content (human melanocytes; 5 ppm): 20.2 +/− 1.3 μg/mL/10^6 cell
Change with regard to control (β-galactosidase) (human dermal fibroblasts; 3 ppm): −35%; p = 0.05
β-galactosidase relative activity (human dermal fibroblasts; 3 ppm): 3702 +/− 992 FAU/10^6 cells
Change with regard to control (β-galactosidase) (human dermal fibroblasts; 5 ppm): −51%; p < 0.02
β-galactosidase relative activity (human dermal fibroblasts; 5 ppm): 2789 +/− 803 FAU/10^6 cells
level of protection against oxidation (stratum corneum): +44%
